The values below come from ChEMBL document CHEMBL1641450, “Non-covalent inhibitors of rhinovirus 3C protease” (Bioorg Med Chem Lett, 2011).

Each structure is given as a SMILES string. ≈ marks a conversion by molar mass, not a printed value. Calls of active or inactive are those of the source. No cut-off for these calls is given here.

A short description of series [1]: Binding affinity to Human rhinovirus 2 purified 15N-labeled 3C protease after 50 mins by NMR assay. The arrangement: species or system rhinovirus A2.
Series [2] has as its system rhinovirus A2. The series is described as follows: Inhibition of Human rhinovirus 2 purified 3C protease at 100 uM preincubated for 30 mins measured after 1 hrs by FRET assay.
Series [3] can be described thus: Inhibition of Human rhinovirus 2 purified 3C protease preincubated for 30 mins measured after 1 hrs by FRET assay. The arrangement: species or system rhinovirus A2.
Series [4] in a line: Solubility of the compound. Type of series: physicochemical.
The subject of series [5] is rhinovirus A2. Description: Binding affinity to Human rhinovirus 2 purified 15N-labeled 3C protease at 500 uM after 50 mins by NMR assay.

As for `Nc1cc(-c2ccccc2)nc2ccccc12`, the pKd – broadly, the negative decadic logarithm of the Kd, by convention in mol/L – in series [1] worked out at 3.
As for `CNC(=O)c1ccc2c(=O)cc(-c3cccnc3)[nH]c2c1`, the inhibition (usually the percentage by which the read-out fell short of the control) in series [2] is 40%.
`O=C(O)/C=C/c1ccc2[nH]c(-c3cccnc3)cc(=O)c2c1` displayed an inhibition in series [2] of 70%. Besides, the pIC50 – broadly, the negative decadic logarithm of the IC50, by convention in mol/L – in series [3] was found to be 4.2.
For the molecule `Cc1cc2[nH]c(-c3ccccc3)cc(=O)n2n1`, in series [2], the inhibition came out at 43%. The solubility (commonly how much of the substance goes into solution per volume) in series [4] is more than 900 µM.
Regarding `c1ccc(-c2ccc3ccccc3n2)cc1` [2-PHENYLQUINOLINE], the pKd in series [1] is given as less than 3.
In turn, `O=c1cc(-c2ccccc2)oc2ccccc12` [FLAVONE] yielded a pKd in series [1] of 3.
With `N#Cc1ccc2[nH]c(-c3cccnc3)cc(=O)c2c1`, in series [2], the inhibition is 50%. Further, in series [3], the pIC50 was 4.
Molecule `CCOC(=O)CCc1ccc2[nH]c(-c3cccnc3)cc(=O)c2c1` registered an inhibition in series [2] of 0%. Moreover, the result in series [5] was inactive.
Consider `Oc1cc(-c2ccccc2)nc2ccccc12`, for which, in series [1], the pKd is 3.7. Also, the concentration in solution in series [4] (solubility) came to 100 µM (≈ 22.1 µg/mL).
As to `CCOC(=O)/C=C/c1ccc2[nH]c(-c3cccnc3)cc(=O)c2c1`, in series [2], the inhibition is more than 90%. The same molecule showed a pIC50 in series [3] of 5.3.
For the molecule `Cn1c(-c2ccccc2)cc(=O)c2ccccc21`, the pKd in series [1] was 3.
The molecule `CNC(=O)Cc1ccc2c(=O)cc(-c3cccnc3)[nH]c2c1` gave an inhibition in series [2] of 45%.
As to `CC(=O)c1ccc2[nH]c(-c3cccnc3)cc(=O)c2c1`, the inhibition in series [2] amounted to 25%.
In series [2], `O=Cc1ccc2[nH]c(-c3cccnc3)cc(=O)c2c1` gave an inhibition of more than 95%. In series [3], this molecule had a negative-log IC50 (pIC50) of 6.
In series [2], `O=c1cc(-c2cccnc2)[nH]c2cc(Cc3ccccc3)ccc12` gave an inhibition of 100%. The molecule also came in with a pIC50 in series [3] of 5. In series [4], the solubility worked out at 1 µM (≈ 0.312 µg/mL).
Molecule `O=c1cc(-c2cccnc2)[nH]c2ccccc12` showed an inhibition in series [2] of 35%. For the same molecule, in series [1], the negative logarithm of the Kd (pKd) is 3.5. In series [4], the solubility is more than 1300 µM.
In turn, `Cc1ccc2c(=O)cc(-c3cccnc3)[nH]c2c1` registered an inhibition in series [2] of 40%.
Regarding `COc1cc(-c2ccccc2)nc2ccccc12`, the pKd in series [1] is recorded as less than 3.
Consider `O=c1cc(-c2cccnc2)[nH]c2cc(C(O)c3ccccc3)ccc12` (racemic), for which the inhibition in series [2] was found to be 80%. The molecule further came in with a negative logarithm of the IC50 (pIC50) in series [3] of 4.7.
With `COc1ccc2c(=O)cc(-c3cccnc3)[nH]c2c1`, the inhibition in series [2] was less than 10%.
